Measurements taken from patent publication US20180230127A1 (PFIZER INC., priority 2015, published 2018).
pIC50: −log10 of the molar value. Where a name gives a salt, the structure may show the parent alone.

The compounds below were run against T1, human IRAK4 kinase domain (aa 154-460) (Homo sapiens, UniProt Q9NWZ3) (assay: IRAK4 Enzymatic DELFIA Assay). Settings: 0.6 mM ATP (KM); 114 pM IRAK4 kinase domain; 200 nM substrate; 5% DMSO.
T1 construct: human IRAK4 kinase domain (aa 154-460; GenBank ID AF445802)
T1 sequence (Q9NWZ3 154-460): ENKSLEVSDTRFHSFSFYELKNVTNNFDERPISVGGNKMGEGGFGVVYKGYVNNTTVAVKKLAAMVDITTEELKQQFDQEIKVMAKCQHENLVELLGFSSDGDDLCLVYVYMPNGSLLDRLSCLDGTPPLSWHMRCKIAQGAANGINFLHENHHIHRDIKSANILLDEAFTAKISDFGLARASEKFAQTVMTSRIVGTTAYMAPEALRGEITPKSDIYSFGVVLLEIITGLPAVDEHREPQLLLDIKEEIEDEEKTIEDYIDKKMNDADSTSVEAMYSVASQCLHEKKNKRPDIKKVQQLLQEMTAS
Assay type: biochemical
Description: IRAK4 Enzymatic DELFIA Assay.
This is an in vitro assay to measure IRAK4 enzymatic activity utilizing the DELFIA (Dissociation-Enhanced Lanthanide Fluorescent Immunoassay, Perkin-Elmer) platform, with the human IRAK4 kinase domain (aa 154-460) construct to characterize IRAK4 inhibitor and control compounds at 0.6 mM ATP (KM). The final amount of enzyme in the assay is 114 pM IRAK4 kinase domain, final concentration of substrate is 200 nM, and final concentration of DMSO is 5%.
The test compound was solubilized in DMSO to a stock concentration of 30 mM. The dose response plates were prepared with a 2 mM primary compound concentration, and then diluted in DMSO in a four-fold series for a total of 10 data points. Compounds were prepared as a 20-fold multiple of the final in-assay concentration
To begin the assay, 45 μL of reaction mixture containing 20 mM HEPES pH=7.5, 5 mM MgCl2, 0.0025% Brij-35, […], 228 pM phosphorylated recombinant human IRAK4 kinase domain (aa 154-460; GenBank ID AF445802) were aliquoted into Ultra-Clear Polypropylene, 96-well, U-Bottom Plates (Corning Life Sciences). 5 μL of test compound from the dose-response plate was added to the reaction mixture and incubated for 15 minutes at room temperature. Then 50 μL of 20 mM HEPES pH=7.5, 5 mM MgCl2, 0.0025% Brij-35, 600 μM ATP, and 400 nM ERM-biotinylated peptide (AGAGRDKYKTLRQIR) were added to start the reaction. The reaction was incubated for 90 minutes at room temperature and stopped by the addition of 25 μL 0.5M EDTA.
100 μL of the reaction mixture was transferred to a streptavidin coated detection plate (EvenCoat Streptavidin Coated Plates, 96-Well, R&D Systems) and incubated for 30 minutes at room temperature. The plates were washed 4 times with 100 μL per well of PBS containing 0.05% Tween-20. Plates were then incubated with 50 μL per well of antibody cocktail of Anti-pERM antibody (Cell Signaling Technology) diluted 1:5000, plus Anti-Rabbit IgG EuN1 at 0.242 μg/ml (Perkin-Elmer Life Sciences) in a solution of 10 mM MOPS pH=7.5, 150 mM NaCl, 0.05% Tween-20, 0.02% NaN3, 1% BSA, 0.1% Gelatin for 45 minutes. The plates were washed 4× with 100 μL per well of PBS containing 0.05% Tween-20. Then 100 μL per well of DELFIA Enhancement Solution were added to the plate and then read on an EnVision Model 2103 using a 340 nm excitation wavelength and a 665 nm emission detection.

First: CC(C)Oc1cc2c(O[C@@H]3[C@@H]4CC=C[C@H]3NC4=O)nccc2cc1C(N)=O [Example 66, 1-{[(1S,5R,8R)-7-oxo-6-azabicyclo[3.2.1]oct-3-en-8-yl]oxy}-7-(propan-2-yloxy)isoquinoline-6-carboxamide]
Second: CC(C)Oc1cc2c(O[C@H]3CCNC3)nccc2cc1C(N)=O [Example 79, 7-(propan-2-yloxy)-1-[(3S)-pyrrolidin-3-yloxy]isoquinoline-6-carboxamide]
The pIC50 of the first is 1.59 log units higher: 7.42 for the first, 5.83 for the second.

`NC(=O)c1cc2nccc(O[C@@H]3CCCNC3)c2cc1OC(F)F` [Example 67, (R)-6-(difluoromethoxy)-4-(piperidin-3-yloxy)quinoline-7-carboxamide] and `CC[C@H](C)Oc1cc2c(O[C@@H]3CCCNC3)ccnc2cc1C(N)=O` [Example 72, 6-[(2S)-butan-2-yloxy]-4-[(3R)-piperidin-3-yloxy]quinoline-7-carboxamide] are within 0.2 log units of each other in pIC50: 5.86 for the first, 5.96 for the second.

Compared with `Cc1cc(O[C@@H]2CCCNC2)c2cc(OC(C)C)c(C(N)=O)cc2n1` [Example 68, (R)-6-isopropoxy-2-methyl-4-(piperidin-3-yloxy)quinoline-7-carboxamide trifluoroacetate], `CC(C)Oc1cc2c(O[C@@H]3CCCNC3)cccc2cc1C(N)=O` [Example 69, (R)-3-isopropoxy-5-(piperidin-3-yloxy)-2-naphthamide trifluoroacetate] is 1.55 log units higher in pIC50: 5.89 for the first, 7.44 for the second. The second is the more potent here.

First: CC(C)Oc1cc2c(O[C@H]3CNCC[C@@H]3C)nccc2cc1C(N)=O [Example 70, 1-{[(3R,4S)-4-methylpiperidin-3-yl]oxy}-7-(propan-2-yloxy)isoquinoline-6-carboxamide]
Second: CC(C)Oc1cc2c(O[C@H]3CNCC[C@@H]3C)ccnc2cc1C(N)=O [Example 74, 4-{[(3R,4S)-4-methylpiperidin-3-yl]oxy}-6-(propan-2-yloxy)quinoline-7-carboxamide]
The pIC50 of the first is 0.35 log units higher: 5.90 for the first, 5.55 for the second.

`CC(C)Oc1cc2c(OC3CCCN(C)C3)ccnc2cc1C(N)=O` (stereo not drawn) [Example 71, 4-[(1-methylpiperidin-3-yl)oxyl]-6-(propan-2-yloxy)quinoline-7-carboxamide] and `CC(C)Oc1cc2c(O[C@@H]3CCNC3)ccnc2cc1C(N)=O` [Example 77, 6-(propan-2-yloxy)-4-[(3R)-pyrrolidin-3-yloxy]quinoline-7-carboxamide] are within 0.2 log units of each other in pIC50: 5.92 for the first, 5.91 for the second.

First: CC(C)Oc1cc2c(O[C@@H]3CCCNC3)ncc(C#N)c2cc1C(N)=O [Example 73, 4-cyano-1-[(3R)-piperidin-3-yloxy]-7-(propan-2-yloxy)isoquinoline-6-carboxamide]
Second: CC(C)Oc1cc2c(O[C@H]3CCCNC3)nccc2cc1C(N)=O [Example 75, 1-[(3S)-piperidin-3-yloxy]-7-(propan-2-yloxy)isoquinoline-6-carboxamide]
The pIC50 of the first is 0.29 log units higher: 5.80 for the first, 5.51 for the second.

`CC(C)COc1cc2c(O[C@@H]3CCCNC3)ccnc2cc1C(N)=O` [Example 76, 6-(2-methylpropoxy)-4-[(3R)-piperidin-3-yloxy]quinoline-7-carboxamide] and `CC(C)Oc1cc2c(O[C@H]3CNCC[C@@H]3C)ccnc2cc1C(N)=O` [Example 78, 4-{[(3R,4S)-4-methylpiperidin-3-yl]oxy}-6-(propan-2-yloxy)quinoline-7-carboxamide] are within 0.2 log units of each other in pIC50: 5.64 for the first, 5.52 for the second.

Work on `CC(C)Oc1cc2c(O[C@H]3C[C@H]4CC[C@@H](C3)N4)nccc2cc1C(N)=O` [Example 80, 1-[(3-endo)-8-azabicyclo[3.2.1]oct-3-yloxy]-7-(propan-2-yloxy)isoquinoline-6-carboxamide] yielded a pIC50 of 5.88.
